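Tested at 5 concentrations; 48 h exposure; 96-well plates; endpoints linearly interpolated, else capped at highest concentration. The concentration for full growth arrest is given as TGI.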
Key:
Assay in all cases: inhibition of tumour cell growth, NCI panel, 48 h
786-0 renal = tested on: 786-0 renal
A498 renal = tested on: A498 renal
A549 NSCLC = tested on: A549 NSCLC
ACHN renal = tested on: ACHN renal
CAKI-1 renal = tested on: CAKI-1 renal
CCRF-CEM leukemia = tested on: CCRF-CEM leukemia
COLO 205 colon = tested on: COLO 205 colon
DLD-1 colon = tested on: DLD-1 colon
DMS 114 small cell lung = tested on: DMS 114 small cell lung
DMS 273 small cell lung = tested on: DMS 273 small cell lung
EKVX NSCLC = tested on: EKVX NSCLC
HCC-2998 colon = tested on: HCC-2998 colon
HCT-116 colon = tested on: HCT-116 colon
HCT-15 colon = tested on: HCT-15 colon
HL-60(TB) leukemia = tested on: HL-60(TB) leukemia
HOP-18 NSCLC = tested on: HOP-18 NSCLC
HOP-62 NSCLC = tested on: HOP-62 NSCLC
HOP-92 NSCLC = tested on: HOP-92 NSCLC
HT29 colon = tested on: HT29 colon
IGROV1 ovarian = tested on: IGROV1 ovarian
K-562 leukemia = tested on: K-562 leukemia
KM12 colon = tested on: KM12 colon
KM20L2 colon = tested on: KM20L2 colon
LOX IMVI melanoma = tested on: LOX IMVI melanoma
M14 melanoma = tested on: M14 melanoma
M19-MEL melanoma = tested on: M19-MEL melanoma
MALME-3M melanoma = tested on: MALME-3M melanoma
MOLT-4 leukemia = tested on: MOLT-4 leukemia
NCI-H226 lung = tested on: NCI-H226 lung
NCI-H23 lung = tested on: NCI-H23 lung
NCI-H460 lung = tested on: NCI-H460 lung
NCI-H522 lung = tested on: NCI-H522 lung
OVCAR-3 ovarian = tested on: OVCAR-3 ovarian
OVCAR-4 ovarian = tested on: OVCAR-4 ovarian
OVCAR-5 ovarian = tested on: OVCAR-5 ovarian
OVCAR-8 ovarian = tested on: OVCAR-8 ovarian
RPMI-8226 leukemia = tested on: RPMI-8226 leukemia
RXF 393 renal = tested on: RXF 393 renal
SF-268 CNS = tested on: SF-268 CNS
SF-295 CNS = tested on: SF-295 CNS
SF-539 CNS = tested on: SF-539 CNS
SK-MEL-2 melanoma = tested on: SK-MEL-2 melanoma
SK-MEL-28 melanoma = tested on: SK-MEL-28 melanoma
SK-MEL-5 melanoma = tested on: SK-MEL-5 melanoma
SK-OV-3 ovarian = tested on: SK-OV-3 ovarian
SN12C renal = tested on: SN12C renal
SNB-19 CNS = tested on: SNB-19 CNS
SNB-75 CNS = tested on: SNB-75 CNS
SR leukemia = tested on: SR leukemia
SW-620 colon = tested on: SW-620 colon
TK-10 renal = tested on: TK-10 renal
U251 CNS = tested on: U251 CNS
UACC-257 melanoma = tested on: UACC-257 melanoma
UACC-62 melanoma = tested on: UACC-62 melanoma
UO-31 renal = tested on: UO-31 renal
XF 498 CNS = tested on: XF 498 CNS
LXFL 529 NSCLC = tested on: LXFL 529 NSCLC
RXF-631 renal = tested on: RXF-631 renal
BT-549 breast = tested on: BT-549 breast
DU-145 prostate = tested on: DU-145 prostate
HS 578T breast = tested on: HS 578T breast
MCF7 breast = tested on: MCF7 breast
MDA-MB-231 breast = tested on: MDA-MB-231 breast
MDA-MB-435 = tested on: MDA-MB-435
MDA-N = tested on: MDA-N
NCI/ADR-RES ovarian = tested on: NCI/ADR-RES ovarian
PC-3 prostate = tested on: PC-3 prostate
T-47D breast = tested on: T-47D breast

## COP(=O)(OC)C(NC(=O)C(F)(F)F)(c1ccccc1)C(F)(F)F (stereo not given)
786-0 renal
  TGI: > 100 µM
A498 renal
  TGI: > 100 µM
A549 NSCLC
  TGI: > 100 µM
ACHN renal
  TGI: > 100 µM
CAKI-1 renal
  TGI: > 100 µM
CCRF-CEM leukemia
  TGI: > 100 µM
COLO 205 colon
  TGI: > 100 µM
DLD-1 colon
  TGI: > 100 µM
DMS 114 small cell lung
  TGI: > 100 µM
DMS 273 small cell lung
  TGI: > 100 µM
EKVX NSCLC
  TGI: > 100 µM
HCC-2998 colon
  TGI: > 100 µM
HCT-116 colon
  TGI: > 100 µM
HCT-15 colon
  TGI: > 100 µM
HL-60(TB) leukemia
  TGI: > 100 µM
HOP-18 NSCLC
  TGI: > 100 µM
HOP-62 NSCLC
  TGI: > 100 µM
HOP-92 NSCLC
  TGI: > 100 µM
HT29 colon
  TGI: > 100 µM
IGROV1 ovarian
  TGI: > 100 µM
K-562 leukemia
  TGI: > 100 µM
KM12 colon
  TGI: > 100 µM
KM20L2 colon
  TGI: > 100 µM
LOX IMVI melanoma
  TGI: > 100 µM
M14 melanoma
  TGI: > 100 µM
M19-MEL melanoma
  TGI: > 100 µM
MALME-3M melanoma
  TGI: > 100 µM
MOLT-4 leukemia
  TGI: > 100 µM
NCI-H226 lung
  TGI: > 100 µM
NCI-H23 lung
  TGI: > 100 µM
NCI-H460 lung
  TGI: > 100 µM
NCI-H522 lung
  TGI: > 100 µM
OVCAR-3 ovarian
  TGI: > 100 µM
OVCAR-4 ovarian
  TGI: > 100 µM
OVCAR-5 ovarian
  TGI: > 100 µM
OVCAR-8 ovarian
  TGI: > 100 µM
RPMI-8226 leukemia
  TGI: > 100 µM
RXF 393 renal
  TGI: > 100 µM
SF-268 CNS
  TGI: > 100 µM
SF-295 CNS
  TGI: > 100 µM
SF-539 CNS
  TGI: > 100 µM
SK-MEL-2 melanoma
  TGI: > 100 µM
SK-MEL-28 melanoma
  TGI: > 100 µM
SK-MEL-5 melanoma
  TGI: > 100 µM
SK-OV-3 ovarian
  TGI: > 100 µM
SN12C renal
  TGI: > 100 µM
SNB-19 CNS
  TGI: > 100 µM
SNB-75 CNS
  TGI: > 100 µM
SR leukemia
  TGI: > 100 µM
SW-620 colon
  TGI: > 100 µM
TK-10 renal
  TGI: > 100 µM
U251 CNS
  TGI: > 100 µM
UACC-257 melanoma
  TGI: > 100 µM
UACC-62 melanoma
  TGI: > 100 µM
UO-31 renal
  TGI: > 100 µM
XF 498 CNS
  TGI: > 100 µM

## NC(=O)c1ccccc1NC(=O)C(=O)Cc1nc2ccccc2[nH]c1=O
786-0 renal
  TGI: > 100 µM
A498 renal
  TGI: > 100 µM
A549 NSCLC
  TGI: > 100 µM
ACHN renal
  TGI: > 100 µM
CAKI-1 renal
  TGI: > 100 µM
CCRF-CEM leukemia
  TGI: > 100 µM
COLO 205 colon
  TGI: > 100 µM
DLD-1 colon
  TGI: > 100 µM
DMS 114 small cell lung
  TGI: > 100 µM
DMS 273 small cell lung
  TGI: > 100 µM
EKVX NSCLC
  TGI: > 100 µM
HCC-2998 colon
  TGI: > 100 µM
HCT-116 colon
  TGI: > 100 µM
HCT-15 colon
  TGI: > 100 µM
HL-60(TB) leukemia
  TGI: > 100 µM
HOP-62 NSCLC
  TGI: > 100 µM
HOP-92 NSCLC
  TGI: > 100 µM
IGROV1 ovarian
  TGI: > 100 µM
K-562 leukemia
  TGI: > 100 µM
KM12 colon
  TGI: > 100 µM
KM20L2 colon
  TGI: > 100 µM
LOX IMVI melanoma
  TGI: > 100 µM
LXFL 529 NSCLC
  TGI: > 100 µM
M14 melanoma
  TGI: > 100 µM
M19-MEL melanoma
  TGI: > 100 µM
MALME-3M melanoma
  TGI: > 100 µM
MOLT-4 leukemia
  TGI: > 100 µM
NCI-H23 lung
  TGI: > 100 µM
NCI-H460 lung
  TGI: > 100 µM
NCI-H522 lung
  TGI: > 100 µM
OVCAR-3 ovarian
  TGI: > 100 µM
OVCAR-4 ovarian
  TGI: > 100 µM
OVCAR-5 ovarian
  TGI: > 100 µM
OVCAR-8 ovarian
  TGI: > 100 µM
RPMI-8226 leukemia
  TGI: > 100 µM
RXF 393 renal
  TGI: > 100 µM
RXF-631 renal
  TGI: > 100 µM
SF-268 CNS
  TGI: > 100 µM
SF-295 CNS
  TGI: > 100 µM
SF-539 CNS
  TGI: > 100 µM
SK-MEL-2 melanoma
  TGI: > 100 µM
SK-MEL-28 melanoma
  TGI: > 100 µM
SK-MEL-5 melanoma
  TGI: > 100 µM
SK-OV-3 ovarian
  TGI: > 100 µM
SNB-19 CNS
  TGI: > 100 µM
SNB-75 CNS
  TGI: > 100 µM
SW-620 colon
  TGI: > 100 µM
TK-10 renal
  TGI: > 100 µM
U251 CNS
  TGI: > 100 µM
UACC-257 melanoma
  TGI: > 100 µM
UACC-62 melanoma
  TGI: > 100 µM
UO-31 renal
  TGI: > 100 µM

## O=C1C2=C(c3ccccc31)C(c1ccccc1)N1C(=O)CSC1=N2 (stereo not given)
786-0 renal
  TGI: > 100 µM
A498 renal
  TGI: > 100 µM
A549 NSCLC
  TGI: > 100 µM
ACHN renal
  TGI: > 100 µM
BT-549 breast
  TGI: 66.5 µM
CAKI-1 renal
  TGI: > 100 µM
CCRF-CEM leukemia
  TGI: > 100 µM
COLO 205 colon
  TGI: > 100 µM
DLD-1 colon
  TGI: > 100 µM
DMS 114 small cell lung
  TGI: > 100 µM
DMS 273 small cell lung
  TGI: > 100 µM
DU-145 prostate
  TGI: > 100 µM
EKVX NSCLC
  TGI: > 100 µM
HCC-2998 colon
  TGI: > 100 µM
HCT-116 colon
  TGI: > 100 µM
HCT-15 colon
  TGI: 98.1 µM
HL-60(TB) leukemia
  TGI: 95.8 µM
HOP-62 NSCLC
  TGI: > 100 µM
HOP-92 NSCLC
  TGI: > 100 µM
HS 578T breast
  TGI: 82.2 µM
HT29 colon
  TGI: 96.9 µM
IGROV1 ovarian
  TGI: > 100 µM
K-562 leukemia
  TGI: > 100 µM
KM12 colon
  TGI: > 100 µM
KM20L2 colon
  TGI: > 100 µM
LOX IMVI melanoma
  TGI: > 100 µM
LXFL 529 NSCLC
  TGI: > 100 µM
M14 melanoma
  TGI: > 96.6 µM
M19-MEL melanoma
  TGI: > 100 µM
MALME-3M melanoma
  TGI: > 100 µM
MCF7 breast
  TGI: > 100 µM
MDA-MB-231 breast
  TGI: > 100 µM
MDA-MB-435
  TGI: 37.3 µM
MDA-N
  TGI: 47.3 µM
MOLT-4 leukemia
  TGI: > 100 µM
NCI-H226 lung
  TGI: > 100 µM
NCI-H23 lung
  TGI: > 100 µM
NCI-H460 lung
  TGI: > 100 µM
NCI-H522 lung
  TGI: > 79.8 µM
NCI/ADR-RES ovarian
  TGI: 59.1 µM
OVCAR-3 ovarian
  TGI: > 100 µM
OVCAR-4 ovarian
  TGI: > 100 µM
OVCAR-5 ovarian
  TGI: > 100 µM
OVCAR-8 ovarian
  TGI: > 100 µM
PC-3 prostate
  TGI: > 100 µM
RPMI-8226 leukemia
  TGI: > 100 µM
RXF 393 renal
  TGI: 60.5 µM
RXF-631 renal
  TGI: > 100 µM
SF-268 CNS
  TGI: > 100 µM
SF-295 CNS
  TGI: > 100 µM
SF-539 CNS
  TGI: 97.1 µM
SK-MEL-2 melanoma
  TGI: > 100 µM
SK-MEL-28 melanoma
  TGI: > 100 µM
SK-MEL-5 melanoma
  TGI: > 100 µM
SK-OV-3 ovarian
  TGI: > 100 µM
SN12C renal
  TGI: > 94.9 µM
SNB-19 CNS
  TGI: > 100 µM
SNB-75 CNS
  TGI: 67.7 µM
SR leukemia
  TGI: > 100 µM
SW-620 colon
  TGI: > 100 µM
T-47D breast
  TGI: 77.6 µM
TK-10 renal
  TGI: > 100 µM
U251 CNS
  TGI: > 100 µM
UACC-257 melanoma
  TGI: > 100 µM
UACC-62 melanoma
  TGI: > 100 µM
UO-31 renal
  TGI: > 100 µM
XF 498 CNS
  TGI: > 100 µM
